biological target: T1, PLA2 (Homo sapiens, UniProt P14555); experiment: PLA2 Inhibition Assay (14C-oleate labeled E. coli membrane substrate); assay type: biochemical; conditions: Table 1, Structure 11 (Type IA); 100 μM; enzyme isolated from human platelets
T1 construct: The enzyme is isolated from human platelets; from tissue; host or cells: human platelets
T1 sequence (P14555 21-144): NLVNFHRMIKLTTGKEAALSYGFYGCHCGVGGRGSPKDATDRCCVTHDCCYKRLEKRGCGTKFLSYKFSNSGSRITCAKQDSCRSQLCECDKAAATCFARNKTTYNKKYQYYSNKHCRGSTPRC
Protocol: The method used is similar to that reported by Franson, et al. [Jesse, R. L. and Franson R. C., Biochim. Biophys. Acta 575:467-470 (1979); Franson, R. C., Patriarca, P., and Elsback, P., J. Lipid Res. 15: 380-388 (1974)]. The enzyme is isolated from human platelets. The substrate used consists of ^14 C-oleate labeled Escherichia coli membranes. E. coli cells are grown in the presence of ^14 C-oleic acid and then autoclaved to prepare the membranes.
Various concentrations of test compounds are pre-incubated with PLA2 (3.6 μg/mL in a buffer consisting of 25 mM HEPES (pH 7)), 150 mM NaCl, 5.0 mM CaCl2, and 10% DMSO (v/v, test compound solvent) at 37° C. for 7 minutes. The E. coli membrane substrate is then added (0.1 mM phospholipid, 0.005 μCi ^14 C) and the reaction is then incubated at 37° C. for 30 minutes. The reaction is then terminated by the addition of 1.9 mL tetrahydrofuran (THF), and the entire solution is applied to a solid-phase extraction column (aminopropyl resin, Analytichem). The column is rinsed with an additional 1 mL of THF. The free fatty acid product of the reaction is then eluted from the column with 1 mL of 2% acetic acid in THF and collected in a scintillation vial. The amount of free fatty acid product is determined by liquid scintillation counting. The amount of inhibition produced by the test compound is calculated by comparing the counts obtained in the presence of the compound to those obtained in its absence (solvent only). Background counts were determined by performing incubations in the absence of enzyme.
Percent inhibition is determined by the equation: [formula]

SMILES	inhibition at 100 µM [%]
O=C(O)/C=C\C(=C\c1ccccc1)c1cccc(C(=O)O)c1 [Structure 11a, (2Z),(4Z)-4-(3-Carboxyphenyl)-5-phenyl-2,4-pentadienoic acid]	6
CC1(C)CCC(C)(C)c2cc(/C=C(/C=C\C(=O)O)c3cccc(C(=O)O)c3)ccc21 [Structure 11b, (2Z),(4Z)-4-(3-Carboxyphenyl)-5-(5,6,7,8-tetrahydro-5,5,8,8-tetramethyl-2-naphthalenyl)-2,4-pentadienoic acid]	44
CC1(C)CCC(C)(C)c2cc3cc(/C=C(/C=C\C(=O)O)c4cccc(C(=O)O)c4)ccc3cc21 [Structure 11c, (2Z),(4Z)-4-(3-Carboxyphenyl)-5-(5,6,7,8-tetrahydro-5,5,8,8-tetramethyl-2-anthracenyl)-2,4-pentadienoic acid]	97
CCCCCCCCCCOc1ccc(/C=C(/C=C\C(=O)O)c2cccc(C(=O)O)c2)cc1 [Structure 11d, (2Z),(4Z)-4-(3-Carboxyphenyl)-5-(4-decyloxyphenyl)-2,4-pentadienoic acid]	100
CCCCCCCCCCOc1ccc(/C=C(/C=C\C(=O)O)c2cccc(C(=O)O)c2)cc1OCCCCCCCCCC [Structure 11e, (2Z),(4Z)-4-(3-Carboxyphenyl)-5-(3,4-bisdecyloxyphenyl)-2,4-pentadienoic a cid]	100
O=C(O)/C=C\C(=C\CCc1ccccc1)c1cccc(C(=O)O)c1 [Structure 11f, (2Z),(4Z)-4-(3-Carboxyphenyl)-7-phenyl-2,4-heptadienoic acid]	15
CC1(C)CCC(C)(C)c2cc(CC/C=C(/C=C\C(=O)O)c3cccc(C(=O)O)c3)ccc21 [Structure 11g, (2Z),(4Z)-4-(3-Carboxyphenyl)-7-(5,6,7,8-tetrahydro-5,5,8,8-tetramethyl-2-naphthalenyl)-2,4-heptadienoic acid]	58
C\C(=C/C=C(/C=C\C(=O)O)c1cccc(C(=O)O)c1)c1ccc2c(c1)C(C)(C)CCC2(C)C [Structure 11h, (2Z),(4Z),(6E)-4-(3-Carboxyphenyl)-7-(5,6,7,8-tetrahydro-5,5,8,8-tetramethyl-2-naphthalenyl)-2,4,6-octatrienoic acid]	97
COc1cc(CC/C=C(/C=C\C(=O)O)c2cccc(C(=O)O)c2)ccc1C12CC3CC(CC(C3)C1)C2 [Structure 11i, (2Z),(4Z)-4-(3-Carboxyphenyl)-7-[4-(1-adamantyl)-3-methoxyphenyl]-2,4-heptadienoic acid]	100
COc1ccc(CC/C=C(/C=C\C(=O)O)c2cccc(C(=O)O)c2)cc1C12CC3CC(CC(C3)C1)C2 [Structure 11j, (2Z),(4Z)-4-(3-Carboxyphenyl)-7-[3-(1-adamantyl)-4-methoxyphenyl]-2,4-heptadienoic acid]	98
CC(=C/C(=O)O)/C(=C/c1ccc2cc3c(cc2c1)C(C)(C)CCC3(C)C)c1cccc(C(=O)O)c1 [Structure 11k, (2Z),(4Z)-3-Methyl-4-(3-carboxyphenyl)-5-(5,6,7,8-tetrahydro-5,5,8,8-tetramethyl-2-anthracenyl)-2,4-pentadienoic acid]	98

same assay, conditions: Table 2, Structure 14 (Type IA); 100 μM; enzyme isolated from human platelets

SMILES	inhibition at 100 µM [%]	% Inhibition of PLA2 at 100 μM [%]
CCCCCCCCCCOc1ccc(/C=C(/C=C\C(=O)O)c2cccc(C(F)(F)F)c2)cc1 [Structure 14a, (2Z),(4Z)-4-(3-Trifluoromethylphenyl)-5-(4-decyloxyphenyl)-2,4-pentadienoic acid]	100	
CCCCCCCCCCOc1cccc(/C=C(/C=C\C(=O)O)c2cccc(C(F)(F)F)c2)c1 [Structure 14b, (2Z),(4Z)-4-(3-Trifluoromethylphenyl)-5-(3-decyloxyphenyl)-2,4-pentadienoic acid]	100	
CCCCCCCCCCOc1ccccc1/C=C(/C=C\C(=O)O)c1cccc(C(F)(F)F)c1 [Structure 14c, (2Z),(4Z)-4-(3-Trifluoromethylphenyl)-5-(2-decyloxyphenyl)-2,4-pentadienoic acid]		92
CC(C)=CCC/C(C)=C/COc1ccc(/C=C(/C=C\C(=O)O)c2cccc(C(F)(F)F)c2)cc1 [Structure 14d]	98	
CCCCCCCCCCOc1ccc(/C=C(/C=CC(=O)O)c2cccc(C(F)(F)F)c2)cc1OCCCCCCCCCC [Structure 14e, (2Z),(4Z)-4-(3-Trifluoromethylphenyl)-5-(3,4-bisdecyloxyphenyl)-2,4-pentadienoic acid/(2E),(4Z)-4-(3-Trifluoromethylphenyl)-5-(3,4-bisdecyloxyphenyl)-2,4-pentadienoic acid]	99	
CC1(C)CCC(C)(C)c2cc3cc(/C=C(/C=C\C(=O)O)c4cccc(C(F)(F)F)c4)ccc3cc21 [Structure 14f, (2Z), (4Z)-4-(3-trifluoromethylphenyl)-5-(5,6,7,8-tetrahydro-5,5,8,8-tetramethyl-2-anthracenyl)-2,4-pentadienoic acid]	71	
CC1(C)CCC(C)(C)c2cc(CC/C=C(/C=C\C(=O)O)c3cccc(C(F)(F)F)c3)ccc21 [Structure 14g, (2Z),(4Z)-4-(3-Trifluoromethylphenyl)-7-(5,6,7,8-tetrahydro-5,5,8,8-tetramethyl-2-naphthalenyl)-2,4-heptadienoic acid]	96	
CC1(C)CCC(C)(C)c2cc(CC/C=C(/C=C\C(=O)O)c3ccc(F)cc3)ccc21 [Structure 14h, (2Z),(4Z)-4-(4-Fluorophenyl)-7-(5,6,7,8-tetrahydro-5,5,8,8-tetramethyl-2-naphthalenyl)-2,4-heptadienoic acid]	96	
CC1(C)CCC(C)(C)c2cc(CC/C=C(/C=C\C(=O)O)c3cccc(F)c3)ccc21 [Structure 14i, (2Z),(4Z)-4-(3-Fluorophenyl)-7-(5,6,7,8-tetrahydro-5,5,8,8-tetramethyl-2-naphthalenyl)-2,4-heptadienoic acid]	96	
CC1(C)CCC(C)(C)c2cc(CC/C=C(/C=C\C(=O)O)c3ccccc3)ccc21 [Structure 14j, (2Z),(4Z)-4-Phenyl-7-(5,6,7,8-tetrahydro-5,5,8,8-tetramethyl-2-naphthalenyl)-2,4-heptadienoic acid]	92	
COc1ccc(CC/C=C(/C=C\C(=O)O)c2cccc(C(F)(F)F)c2)cc1C12CC3CC(CC(C3)C1)C2 [Structure 14k, (2Z),(4Z)-4-(3-Trifluoromethylphenyl)-7-[3-(1-adamantyl)-4-methoxyphenyl]-2,4-heptadienoic acid]	99	
COc1ccc(CC/C=C(/C=C\C(=O)O)c2ccccc2)cc1C12CC3CC(CC(C3)C1)C2 [Structure 14l, (2Z),(4Z)-4-Phenyl-7-[3-(1-adamantyl)-4-methoxyphenyl]-2,4-heptadienoic acid]	99	
COc1cc(CC/C=C(/C=C\C(=O)O)c2cccc(C(F)(F)F)c2)ccc1C12CC3CC(CC(C3)C1)C2 [Structure 14m, (2Z),(4Z)-4-(3-Trifluoromethylphenyl)-7-[4-(1-adamantyl)-3-methoxyphenyl]-2,4-heptadienoic acid]	99	
COc1cc(CC/C=C(/C=C\C(=O)O)c2ccccc2)ccc1C12CC3CC(CC(C3)C1)C2 [Structure 14n, (2Z),(4Z)-4-Phenyl-7-[4-(1-adamantyl)-3-methoxyphenyl]-2,4-heptadienoicacid]	100	
COc1ccc(CC/C=C(/C=C\C(=O)O)c2cccc(C(F)(F)F)c2)c(C23CC4CC(CC(C4)C2)C3)c1 [Structure 14o, (2Z),(4Z)-4-(3-Trifluoromethylphenyl)-7-[2-(1-adamantyl)-4-methoxyphenyl]-2,4-heptadienoic acid]	99	
COc1cc(/C=C(/C=C\C(=O)O)c2cccc(C(F)(F)F)c2)ccc1C12CC3CC(CC(C3)C1)C2 [Structure 14p, (2Z),(4Z)-4-(3-Trifluoromethylphenyl)-5-[-4-(1-adamantyl)-3-methoxyphenyl]-2,4-pentadienoic acid]	93	
O=C(O)/C=C\C(=C\CCc1ccc(C23CC4CC(CC(C4)C2)C3)c(O)c1)c1cccc(C(F)(F)F)c1 [Structure 14q, (2Z),(4Z)-4-(3-Trifluoromethylphenyl)-7-[4-(1-adamantyl)-3-hydroxyphenyl]-2,4-heptadienoic acid]	100	
CCCCCOc1cc(CC/C=C(/C=C\C(=O)O)c2cccc(C(F)(F)F)c2)ccc1C12CC3CC(CC(C3)C1)C2 [Structure 14r, (2Z),(4Z)-4-(3-Trifluoromethylphenyl)-7-[4-(1-adamantyl)-3-pentyloxyphenyl]-2,4-heptadienoic acid]	95	

same assay, conditions: Table 5, Structure 32 (Type IC); 100 μm as printed; enzyme isolated from human platelets

SMILES	% Inhibition of PLA2 at 100 μm [%]
C/C(=C\CC(/C=C\C(=O)O)c1cccc(C(=O)O)c1)c1ccc2c(c1)C(C)(C)CCC2(C)C (racemic) [Structure 32c]	67

Reference: patent US5436369A, “Alicyclic phospholipase A2 inhibitors” (Bristol-Myers Squibb Company, priority 1994, dated 1995)
